According to patent publication US8063075B2, “Pyrrolidine ether derivatives as NK3 receptor antagonists” (Hoffmann-La Roche Inc., priority 2008, dated 2011):

Experiments:
[1] = biological target: T1, recombinant human NK3 receptor (Homo sapiens, UniProt P29371); assay: [3H]SR142801 competition binding assay; settings: membranes from HEK293 cells transiently expressing hNK3; [3H]SR142801 at its KD; 75 min RT; read-out: Data [μM] (affinity constant Ki, hNK3 receptor binding)
T1 construct: expressed in transfected cells; host or cells: HEK293 cells (transient expression), membranes
T1 sequence (P29371 1-465): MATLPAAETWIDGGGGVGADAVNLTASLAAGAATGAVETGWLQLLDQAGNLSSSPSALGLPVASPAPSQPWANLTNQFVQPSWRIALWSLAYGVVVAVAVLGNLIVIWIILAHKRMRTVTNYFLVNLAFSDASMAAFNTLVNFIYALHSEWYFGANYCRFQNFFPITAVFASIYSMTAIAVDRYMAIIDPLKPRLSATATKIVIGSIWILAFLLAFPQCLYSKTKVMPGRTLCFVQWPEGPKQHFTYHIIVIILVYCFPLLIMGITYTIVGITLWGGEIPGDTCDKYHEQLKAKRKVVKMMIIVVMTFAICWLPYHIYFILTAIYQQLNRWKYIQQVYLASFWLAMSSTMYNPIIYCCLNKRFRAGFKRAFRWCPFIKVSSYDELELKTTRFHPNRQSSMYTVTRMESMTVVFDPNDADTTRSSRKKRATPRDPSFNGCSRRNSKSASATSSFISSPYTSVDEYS
Protocol: [^3H]SR142801 Competition Binding Assay
hNK3 receptor binding experiment were performed using [^3H]SR142801 (Catalog No. TRK1035, specific activity: 74.0 Ci/mmol, Amersham, GE Healthcare UK limited, Buckinghamshire, UK) and membrane isolated from HEK293 cells transiently expressing recombinant human NK3 receptor. After thawing, the membrane homogenates were centrifuged at 48,000×g for 10 min at 4° C., the pellets were resuspended in the 50 mM Tris-HCl, 4 mM MnCl2, 1 μM phosphoramidon, 0.1% BSA binding buffer at pH 7.4 to a final assay concentration of 5 μg protein/well. […] At the end of the incubation, membranes were filtered onto unitfilter (96-well white microplate with bonded GF/C filter preincubated 1 h in 0.3% PEI+0.3% BSA, Packard BioScience, Meriden, Conn.) with a Filtermate 196 harvester (Packard BioScience) and washed 4 times with ice-cold 50 mM Tris-HCl, pH 7.4 buffer. Nonspecific binding was measured in the presence of 10 μM SB222200 for both radioligands. The radioactivity on the filter was counted (5 min) on a Packard Top-count microplate scintillation counter with quenching correction after addition of 45 μl of microscint 40 (Can berra Packard S. A., Zürich, Switzerland) and shaking for 1 h. Inhibition curves were fitted according to the Hill equation: y=100/(1+(x/IC50)^nH), where nH=slope factor using Excel-fit 4 software (Microsoft). IC50 values were derived from the inhibition curve and the affinity constant (Ki) values were calculated using the Cheng-Prussoff equation Ki=IC50/(1+[L]/KD) where [L] is the concentration of radioligand and KD is its dissociation constant at the receptor, derived from the saturation isotherm. All experiments were performed in duplicate and the mean±standard error (SEM) of the individual Ki values was calculated.

[2] = phase II trial, cited from earlier work

Row | Ki [1] [µM] | Compound | activity on positive symptoms of schizophrenia ([2]; altered behaviour, delusion, hallucinations, extreme emotions, excited motor activity, incoherent speech) | activity in the treatment of negative symptoms ([2]; depression, anhedonia, social isolation or memory and attention deficits)
1 | 0.007 | C[C@H](Oc1ccc(C#N)cn1)[C@H]1CN(C(=O)[C@H]2CC[C@H](NC(=O)OC(C)(C)C)CC2)C[C@@H]1c1ccc(Cl)c(Cl)c1 (racemic) [Example 43, {4-[(3RS,4SR)-3-[(SR)-1-(5-Cyano-pyridin-2-yloxy)-ethyl]-4-(3,4-dichloro-phenyl)-pyrrolidine-1-carbonyl]-cyclohexyl}-carbamic acid tert-butyl ester] | – | –
2 | 0.004 | CC(=O)N(C)[C@H]1CC[C@H](C(=O)N2C[C@H]([C@H](C)Oc3ccc(C#N)cn3)[C@@H](c3ccc(Cl)c(Cl)c3)C2)CC1 (racemic) [Example 45, N-{4-[(3RS,4SR)-3-[(SR)-1-(5-Cyano-pyridin-2-yloxy)-ethyl]-4-(3,4-dichloro-phenyl)-pyrrolidine-1-carbonyl]-cyclohexyl}-N-methyl-acetamide] | – | –
3 | 0.0018 | CC(=O)N1CCC(C(=O)N2C[C@H]([C@H](C)Oc3ccc(C(F)(F)F)cn3)[C@@H](c3ccc(Cl)c(Cl)c3)C2)CC1 (racemic) [Example 46, 1-(4-{(3SR,4RS)-3-(3,4-Dichloro-phenyl)-4-[(SR)-1-(5-trifluoromethyl-pyridin-2-yloxy)-ethyl]-pyrrolidine-1-carbonyl}-piperidin-1-yl)-ethanone] | – | –
4 | 0.0019 | C[C@H](Oc1ccc(C#N)cn1)[C@H]1CN(C(=O)C2CCN(C(=O)C3(C)CC3)CC2)C[C@@H]1c1ccc(Cl)c(Cl)c1 (racemic) [Example 47, 6-((SR)-1-{(3RS,4SR)-4-(3,4-Dichloro-phenyl)-1-[1-(1-methyl-cyclopropanecarbonyl)-piperidine-4-carbonyl]-pyrrolidin-3-yl}-ethoxy)-nicotinonitrile] | – | –
5 | 0.0074 | C[C@H](Oc1ccc(Cl)cn1)[C@H]1CN(C(=O)C2CCN(C(=O)C3(C)CC3)CC2)C[C@@H]1c1ccc(F)cc1F (racemic) [Example 48, [(3RS,4SR)-3-[(SR)-1-(5-Chloro-pyridin-2-yloxy)-ethyl]-4-(2,4-difluoro-phenyl)-pyrrolidin-1-yl]-[1-(1-methyl-cyclopropanecarbonyl)-piperidin-4-yl]-methanone] | – | –
6 | 0.001 | C[C@H](Oc1ccc(Cl)cn1)[C@H]1CN(C(=O)C2CCN(C(=O)C3(C)CC3)CC2)C[C@@H]1c1ccc(Cl)cc1 [Example 52, {(3S,4R)-3-(4-Chloro-phenyl)-4-[(S)-1-(5-chloro-pyridin-2-yloxy)-ethyl]-pyrrolidin-1-yl}-[1-(1-methyl-cyclopropanecarbonyl)-piperidin-4-yl]-methanone] | – | –
7 | 0.0008 | C[C@H](Oc1ccc(Cl)cn1)[C@H]1CN(C(=O)C2CCN(C(=O)C3(C)CC3)CC2)C[C@@H]1c1ccc(Cl)c(F)c1 [Example 53, {(3S,4R)-3-(4-Chloro-3-fluoro-phenyl)-4-[(S)-1-(5-chloro-pyridin-2-yloxy)-ethyl]-pyrrolidin-1-yl}-[1-(1-methyl-cyclopropanecarbonyl)-piperidin-4-yl]-methanone] | – | –
8 | – | CC(=O)N(C)C1(c2ccccc2)CCN(CCC[C@]2(c3ccc(Cl)c(Cl)c3)CCCN(C(=O)c3ccccc3)C2)CC1 [SR 142,801, Osanetant] | active | inactive
